# Legend:
# [1] = biological target: cholesterol 24-hydroxylase (CH24H, CYP46A1) (Homo sapiens, UniProt Q9Y6A2); experiment: […]cholesterol 24-hydroxylation assay by TLC with lysate of CH24H-expressing cells; format: biochemical
# 5-HT2B = biological target: T1, 5-HT2B (Homo sapiens, UniProt P41595); experiment: biochemical; parameters: radioligand displacement binding panel of CNS receptors and transporters, single concentration; settings: read-out: Inhibition (%)
# T1 construct: gene HTR2B
# Excerpt: (§1) Soticlestat (Supplementary Fig. S1) was discovered as a result of an iterative medicinal chemistry effort following high-throughput screening of an in vitro enzyme assay (Fig. 1A,B).
# Adenosine A2B = biological target: T2, Adenosine A2B (Homo sapiens, UniProt P29275); experiment: biochemical; parameters: radioligand displacement binding panel of CNS receptors and transporters, single concentration; settings: read-out: Inhibition (%)
# T2 construct: gene ADORA2B
# Excerpt: as §1
# Adrenergic β1 = biological target: T3, Adrenergic β1 (Homo sapiens, UniProt P08588); experiment: biochemical; parameters: radioligand displacement binding panel of CNS receptors and transporters, single concentration; settings: read-out: Inhibition (%)
# T3 construct: gene ADRB1
# Excerpt: as §1
# Adrenergic β2 = biological target: T4, Adrenergic β2 (Homo sapiens, UniProt P07550); experiment: biochemical; parameters: radioligand displacement binding panel of CNS receptors and transporters, single concentration; settings: read-out: Inhibition (%)
# T4 construct: gene ADRB2
# Excerpt: as §1
# Adrenergic β3 = biological target: T5, Adrenergic β3 (Homo sapiens, UniProt P13945); experiment: biochemical; parameters: radioligand displacement binding panel of CNS receptors and transporters, single concentration; settings: read-out: Inhibition (%)
# T5 construct: gene ADRB3
# Excerpt: as §1
# Angiotensin AT2 = biological target: T6, Angiotensin AT2 (Homo sapiens, UniProt P50052); experiment: biochemical; parameters: radioligand displacement binding panel of CNS receptors and transporters, single concentration; settings: read-out: Inhibition (%)
# T6 construct: gene AGTR2
# Excerpt: as §1
# Bradykinin B1 = biological target: T7, Bradykinin B1 (Homo sapiens, UniProt P46663); experiment: biochemical; parameters: radioligand displacement binding panel of CNS receptors and transporters, single concentration; settings: read-out: Inhibition (%)
# T7 construct: gene BDKRB1
# Excerpt: as §1
# Cannabinoid CB1 = biological target: T8, Cannabinoid CB1 (Homo sapiens, UniProt P21554); experiment: biochemical; parameters: radioligand displacement binding panel of CNS receptors and transporters, single concentration; settings: read-out: Inhibition (%)
# T8 construct: gene CNR1
# Excerpt: as §1
# Dopamine D1 = biological target: T9, Dopamine D1 (Homo sapiens, UniProt P21728); experiment: biochemical; parameters: radioligand displacement binding panel of CNS receptors and transporters, single concentration; settings: read-out: Inhibition (%)
# T9 construct: gene DRD1
# Excerpt: as §1
# Dopamine D2L = biological target: T10, Dopamine D2L (Homo sapiens, UniProt P14416); experiment: biochemical; parameters: radioligand displacement binding panel of CNS receptors and transporters, single concentration; settings: read-out: Inhibition (%)
# T10 construct: gene DRD2; long isoform
# Excerpt: as §1
# Dopamine D3 = biological target: T11, Dopamine D3 (Homo sapiens, UniProt P35462); experiment: biochemical; parameters: radioligand displacement binding panel of CNS receptors and transporters, single concentration; settings: read-out: Inhibition (%)
# T11 construct: gene DRD3
# Excerpt: as §1
# Dopamine D4.2 = biological target: T12, Dopamine D4.2 (Homo sapiens, UniProt P21917); experiment: biochemical; parameters: radioligand displacement binding panel of CNS receptors and transporters, single concentration; settings: read-out: Inhibition (%)
# T12 construct: gene DRD4; D4.2 repeat variant
# Excerpt: as §1
# Dopamine transporter = biological target: T13, Dopamine transporter (Homo sapiens, UniProt Q01959); experiment: biochemical; parameters: radioligand displacement binding panel of CNS receptors and transporters, single concentration; settings: read-out: Inhibition (%)
# T13 construct: gene SLC6A3
# Excerpt: as §1
# GABA B1A = biological target: T14, GABA B1A (Homo sapiens, UniProt Q9UBS5); experiment: biochemical; parameters: radioligand displacement binding panel of CNS receptors and transporters, single concentration; settings: read-out: Inhibition (%)
# T14 construct: gene GABBR1; isoform 1A
# Excerpt: as §1
# GABA B1B = biological target: T15, GABA B1B (Homo sapiens, UniProt Q9UBS5); experiment: biochemical; parameters: radioligand displacement binding panel of CNS receptors and transporters, single concentration; settings: read-out: Inhibition (%)
# T15 construct: gene GABBR1; isoform 1B
# Excerpt: as §1
# Histamine H1 = biological target: T16, Histamine H1 (Homo sapiens, UniProt P35367); experiment: biochemical; parameters: radioligand displacement binding panel of CNS receptors and transporters, single concentration; settings: read-out: Inhibition (%)
# T16 construct: gene HRH1
# Excerpt: as §1
# Histamine H2 = biological target: T17, Histamine H2 (Homo sapiens, UniProt P25021); experiment: biochemical; parameters: radioligand displacement binding panel of CNS receptors and transporters, single concentration; settings: read-out: Inhibition (%)
# T17 construct: gene HRH2
# Excerpt: as §1
# Muscarinic M1 = biological target: T18, Muscarinic M1 (Homo sapiens, UniProt P11229); experiment: biochemical; parameters: radioligand displacement binding panel of CNS receptors and transporters, single concentration; settings: read-out: Inhibition (%)
# T18 construct: gene CHRM1
# Excerpt: as §1
# Muscarinic M2 = biological target: T19, Muscarinic M2 (Homo sapiens, UniProt P08172); experiment: biochemical; parameters: radioligand displacement binding panel of CNS receptors and transporters, single concentration; settings: read-out: Inhibition (%)
# T19 construct: gene CHRM2
# Excerpt: as §1
# Muscarinic M3 = biological target: T20, Muscarinic M3 (Homo sapiens, UniProt P20309); experiment: biochemical; parameters: radioligand displacement binding panel of CNS receptors and transporters, single concentration; settings: read-out: Inhibition (%)
# T20 construct: gene CHRM3
# Excerpt: as §1
# [2] = biological target: T21, Norepinephrine transporter (Homo sapiens, UniProt P23975); experiment: biochemical; parameters: radioligand displacement binding panel of CNS receptors and transporters, single concentration; settings: read-out: Inhibition (%)
# T21 construct: gene SLC6A2
# Excerpt: as §1
# Opiate κ (OP2, KOP) = biological target: T22, Opiate κ (OP2, KOP) (Homo sapiens, UniProt P41145); experiment: biochemical; parameters: radioligand displacement binding panel of CNS receptors and transporters, single concentration; settings: read-out: Inhibition (%)
# T22 construct: gene OPRK1
# Excerpt: as §1
# Opiate μ (OP3, MOP) = biological target: T23, Opiate μ (OP3, MOP) (Homo sapiens, UniProt P35372); experiment: biochemical; parameters: radioligand displacement binding panel of CNS receptors and transporters, single concentration; settings: read-out: Inhibition (%)
# T23 construct: gene OPRM1
# Excerpt: as §1
# Serotonin transporter = biological target: T24, Serotonin transporter (Homo sapiens, UniProt P31645); experiment: biochemical; parameters: radioligand displacement binding panel of CNS receptors and transporters, single concentration; settings: read-out: Inhibition (%)
# T24 construct: gene SLC6A4
# Excerpt: as §1
# Vasopressin V1A = biological target: T25, Vasopressin V1A (Homo sapiens, UniProt P37288); experiment: biochemical; parameters: radioligand displacement binding panel of CNS receptors and transporters, single concentration; settings: read-out: Inhibition (%)
# T25 construct: gene AVPR1A
# Excerpt: as §1
# [3] = biological target: T26, Cholinesterase, Acetyl, ACES (Homo sapiens, UniProt P22303); experiment: biochemical; parameters: enzyme inhibition panel, single concentration; settings: read-out: Inhibition (%)
# T26 construct: gene ACHE
# Excerpt: as §1
# Cyclooxygenase (COX-1) = biological target: T27, Cyclooxygenase (COX-1) (Homo sapiens, UniProt P23219); experiment: biochemical; parameters: enzyme inhibition panel, single concentration; settings: read-out: Inhibition (%)
# T27 construct: gene PTGS1
# Excerpt: as §1
# Cyclooxygenase (COX-2) = biological target: T28, Cyclooxygenase (COX-2) (Homo sapiens, UniProt P35354); experiment: biochemical; parameters: enzyme inhibition panel, single concentration; settings: read-out: Inhibition (%)
# T28 construct: gene PTGS2
# Excerpt: as §1
# MAO A = biological target: T29, MAO A (Homo sapiens, UniProt P21397); experiment: biochemical; parameters: enzyme inhibition panel, single concentration; settings: read-out: Inhibition (%)
# T29 construct: gene MAOA
# Excerpt: as §1
# MAO B = biological target: T30, MAO B (Homo sapiens, UniProt P27338); experiment: biochemical; parameters: enzyme inhibition panel, single concentration; settings: read-out: Inhibition (%)
# T30 construct: gene MAOB
# Excerpt: as §1
# [4] = biological target: T31, Peptidase, Metalloproteinase, Neutral Endopeptidase (Homo sapiens, UniProt P08473); experiment: biochemical; parameters: enzyme inhibition panel, single concentration; settings: read-out: Inhibition (%)
# T31 construct: gene MME
# Excerpt: as §1
# Phosphodiesterase 5 = biological target: T32, Phosphodiesterase 5 (Homo sapiens, UniProt O76074); experiment: biochemical; parameters: enzyme inhibition panel, single concentration; settings: read-out: Inhibition (%)
# T32 construct: gene PDE5A
# Excerpt: as §1
# T20 sequence (P20309 whole entry): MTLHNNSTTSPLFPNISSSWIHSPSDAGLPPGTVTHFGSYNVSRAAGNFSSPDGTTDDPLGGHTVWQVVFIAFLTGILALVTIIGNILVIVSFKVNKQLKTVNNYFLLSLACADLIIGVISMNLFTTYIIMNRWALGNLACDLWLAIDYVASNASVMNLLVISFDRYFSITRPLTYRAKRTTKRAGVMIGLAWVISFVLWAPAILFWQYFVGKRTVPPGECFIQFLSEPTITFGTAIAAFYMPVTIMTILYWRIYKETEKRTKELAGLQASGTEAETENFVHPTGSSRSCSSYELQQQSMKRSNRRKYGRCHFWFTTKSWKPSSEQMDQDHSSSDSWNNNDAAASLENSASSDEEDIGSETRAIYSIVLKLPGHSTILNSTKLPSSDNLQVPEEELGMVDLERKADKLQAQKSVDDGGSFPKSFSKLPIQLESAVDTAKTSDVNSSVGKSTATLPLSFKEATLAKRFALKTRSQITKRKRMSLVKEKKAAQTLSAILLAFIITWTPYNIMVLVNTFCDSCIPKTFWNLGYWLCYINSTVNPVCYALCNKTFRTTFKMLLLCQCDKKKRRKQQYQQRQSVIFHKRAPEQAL
# T4 sequence (P07550 whole entry): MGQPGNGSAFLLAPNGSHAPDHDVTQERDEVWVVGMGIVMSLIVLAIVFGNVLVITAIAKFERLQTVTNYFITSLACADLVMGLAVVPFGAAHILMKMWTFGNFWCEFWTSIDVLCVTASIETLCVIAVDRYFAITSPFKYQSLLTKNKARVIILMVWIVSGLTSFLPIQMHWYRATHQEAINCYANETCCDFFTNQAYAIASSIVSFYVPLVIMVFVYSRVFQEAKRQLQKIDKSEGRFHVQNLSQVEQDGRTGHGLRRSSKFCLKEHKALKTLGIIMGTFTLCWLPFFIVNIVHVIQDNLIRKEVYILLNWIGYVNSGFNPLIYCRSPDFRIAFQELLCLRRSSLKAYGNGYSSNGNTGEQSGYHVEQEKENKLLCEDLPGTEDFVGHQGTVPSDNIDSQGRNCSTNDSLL
# T16 sequence (P35367 whole entry): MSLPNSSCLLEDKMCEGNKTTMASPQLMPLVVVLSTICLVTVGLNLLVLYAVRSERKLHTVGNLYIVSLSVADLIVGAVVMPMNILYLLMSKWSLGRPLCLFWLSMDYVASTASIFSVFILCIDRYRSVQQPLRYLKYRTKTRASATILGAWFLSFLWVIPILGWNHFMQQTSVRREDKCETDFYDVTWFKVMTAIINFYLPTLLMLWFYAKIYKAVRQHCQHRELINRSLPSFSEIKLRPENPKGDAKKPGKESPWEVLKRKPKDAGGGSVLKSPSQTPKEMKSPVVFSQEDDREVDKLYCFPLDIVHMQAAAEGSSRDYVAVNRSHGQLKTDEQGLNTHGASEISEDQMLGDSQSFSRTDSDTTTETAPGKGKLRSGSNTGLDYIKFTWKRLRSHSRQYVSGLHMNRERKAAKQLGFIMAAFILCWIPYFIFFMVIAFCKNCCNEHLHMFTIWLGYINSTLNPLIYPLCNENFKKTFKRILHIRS
# T29 sequence (P21397 whole entry): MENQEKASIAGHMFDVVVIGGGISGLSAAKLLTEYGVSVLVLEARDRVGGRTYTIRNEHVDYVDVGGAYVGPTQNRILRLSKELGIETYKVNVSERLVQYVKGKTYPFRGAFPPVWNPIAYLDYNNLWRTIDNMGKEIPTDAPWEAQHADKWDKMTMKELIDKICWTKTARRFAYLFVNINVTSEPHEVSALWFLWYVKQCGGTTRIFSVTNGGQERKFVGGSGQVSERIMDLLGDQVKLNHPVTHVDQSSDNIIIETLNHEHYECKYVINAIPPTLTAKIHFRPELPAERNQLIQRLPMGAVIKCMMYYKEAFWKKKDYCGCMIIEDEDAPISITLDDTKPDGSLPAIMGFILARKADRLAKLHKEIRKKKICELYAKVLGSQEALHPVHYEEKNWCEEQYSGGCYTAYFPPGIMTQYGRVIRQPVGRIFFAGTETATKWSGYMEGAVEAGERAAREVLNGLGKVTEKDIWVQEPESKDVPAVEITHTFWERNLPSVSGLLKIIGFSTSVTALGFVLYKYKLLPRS
# T5 sequence (P13945 whole entry): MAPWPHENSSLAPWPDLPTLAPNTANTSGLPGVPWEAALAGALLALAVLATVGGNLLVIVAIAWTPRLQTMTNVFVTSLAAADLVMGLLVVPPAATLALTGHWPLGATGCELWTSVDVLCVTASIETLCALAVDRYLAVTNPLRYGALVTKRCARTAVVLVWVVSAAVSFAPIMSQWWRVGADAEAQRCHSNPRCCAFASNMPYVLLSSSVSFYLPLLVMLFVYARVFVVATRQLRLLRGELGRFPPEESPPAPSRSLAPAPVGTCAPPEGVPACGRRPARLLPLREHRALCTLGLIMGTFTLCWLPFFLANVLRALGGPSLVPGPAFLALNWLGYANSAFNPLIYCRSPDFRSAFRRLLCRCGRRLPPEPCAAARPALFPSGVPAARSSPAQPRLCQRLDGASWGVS
# T8 sequence (P21554 whole entry): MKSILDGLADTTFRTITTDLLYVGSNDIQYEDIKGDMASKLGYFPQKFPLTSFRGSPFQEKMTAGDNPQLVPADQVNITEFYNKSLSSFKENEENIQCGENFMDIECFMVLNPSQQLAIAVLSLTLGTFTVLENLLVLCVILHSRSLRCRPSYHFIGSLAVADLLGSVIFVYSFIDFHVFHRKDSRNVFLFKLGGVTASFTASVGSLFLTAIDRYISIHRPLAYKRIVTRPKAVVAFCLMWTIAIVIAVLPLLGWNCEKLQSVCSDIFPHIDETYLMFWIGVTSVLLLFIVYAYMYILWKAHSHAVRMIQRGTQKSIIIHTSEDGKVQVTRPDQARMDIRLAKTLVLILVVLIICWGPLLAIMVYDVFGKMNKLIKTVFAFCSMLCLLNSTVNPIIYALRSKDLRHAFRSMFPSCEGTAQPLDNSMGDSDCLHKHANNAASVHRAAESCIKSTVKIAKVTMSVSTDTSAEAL
# T17 sequence (P25021 whole entry): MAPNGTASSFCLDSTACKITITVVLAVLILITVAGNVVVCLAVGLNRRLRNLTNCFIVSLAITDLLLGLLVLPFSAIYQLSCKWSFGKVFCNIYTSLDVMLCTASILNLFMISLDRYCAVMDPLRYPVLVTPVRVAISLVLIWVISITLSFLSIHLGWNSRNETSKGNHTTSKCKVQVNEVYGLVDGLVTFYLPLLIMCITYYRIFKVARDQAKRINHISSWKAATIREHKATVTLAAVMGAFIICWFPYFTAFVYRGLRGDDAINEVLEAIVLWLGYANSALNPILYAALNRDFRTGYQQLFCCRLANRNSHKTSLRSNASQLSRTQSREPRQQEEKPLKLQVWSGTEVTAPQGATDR
# T11 sequence (P35462 whole entry): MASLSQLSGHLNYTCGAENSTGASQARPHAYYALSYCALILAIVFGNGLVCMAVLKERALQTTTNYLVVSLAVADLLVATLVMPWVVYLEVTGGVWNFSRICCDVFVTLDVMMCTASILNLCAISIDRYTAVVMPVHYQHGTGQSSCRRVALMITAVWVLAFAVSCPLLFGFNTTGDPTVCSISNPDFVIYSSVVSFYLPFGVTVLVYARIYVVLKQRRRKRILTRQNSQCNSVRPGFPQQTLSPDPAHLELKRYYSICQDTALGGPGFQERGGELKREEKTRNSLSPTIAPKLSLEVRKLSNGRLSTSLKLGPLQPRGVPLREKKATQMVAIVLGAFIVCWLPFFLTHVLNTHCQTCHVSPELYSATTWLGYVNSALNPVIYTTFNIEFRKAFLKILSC
# T6 sequence (P50052 whole entry): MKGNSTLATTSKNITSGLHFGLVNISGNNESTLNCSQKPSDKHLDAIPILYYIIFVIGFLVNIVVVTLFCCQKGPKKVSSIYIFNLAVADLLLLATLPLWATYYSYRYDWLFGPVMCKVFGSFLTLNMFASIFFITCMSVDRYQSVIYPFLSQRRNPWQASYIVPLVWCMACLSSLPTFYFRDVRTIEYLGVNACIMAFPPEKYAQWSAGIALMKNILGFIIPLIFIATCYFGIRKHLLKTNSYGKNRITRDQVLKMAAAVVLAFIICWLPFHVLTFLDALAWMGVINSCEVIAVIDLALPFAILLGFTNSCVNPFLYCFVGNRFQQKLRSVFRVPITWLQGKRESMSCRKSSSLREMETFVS
# T24 sequence (P31645 whole entry): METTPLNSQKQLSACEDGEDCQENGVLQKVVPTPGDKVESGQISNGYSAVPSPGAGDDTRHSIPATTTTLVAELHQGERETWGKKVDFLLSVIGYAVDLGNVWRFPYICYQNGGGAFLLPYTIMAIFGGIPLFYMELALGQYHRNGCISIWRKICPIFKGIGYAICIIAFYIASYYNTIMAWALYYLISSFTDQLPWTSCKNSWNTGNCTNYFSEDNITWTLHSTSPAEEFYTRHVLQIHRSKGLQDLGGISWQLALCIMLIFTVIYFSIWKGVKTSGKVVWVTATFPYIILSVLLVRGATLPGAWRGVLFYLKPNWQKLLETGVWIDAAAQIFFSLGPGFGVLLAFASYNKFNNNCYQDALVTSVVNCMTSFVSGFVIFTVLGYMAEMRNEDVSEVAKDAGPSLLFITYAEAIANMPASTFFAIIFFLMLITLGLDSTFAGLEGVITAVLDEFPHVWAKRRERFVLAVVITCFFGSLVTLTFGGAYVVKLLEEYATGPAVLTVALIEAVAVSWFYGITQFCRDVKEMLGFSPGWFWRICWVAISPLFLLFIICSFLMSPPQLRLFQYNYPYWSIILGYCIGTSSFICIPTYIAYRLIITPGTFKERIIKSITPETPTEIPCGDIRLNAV
smiles,measurement,setting,value
"O=C(c1cccnc1-c1ccncc1)N1CCC(O)(Cc2ccccc2)CC1 [soticlestat, (4-benzyl-4-hydroxypiperidin-1-yl)(2,4′-bipyridin-3-yl) methanone]",IC50,[1],4.5 nM
same,inhibition at 10 µM,5-HT2B,5%
same,inhibition at 10 µM,Adenosine A2B,20%
same,inhibition at 10 µM,Adrenergic β1,-4%
same,inhibition at 10 µM,Adrenergic β2,6%
same,inhibition at 10 µM,Adrenergic β3,-7%
same,inhibition at 10 µM,Angiotensin AT2,-10%
same,inhibition at 10 µM,Bradykinin B1,13%
same,inhibition at 10 µM,Cannabinoid CB1,-5%
same,inhibition at 10 µM,Dopamine D1,5%
same,inhibition at 10 µM,Dopamine D2L,15%
same,inhibition at 10 µM,Dopamine D3,5%
same,inhibition at 10 µM,Dopamine D4.2,0%
same,inhibition at 10 µM,Dopamine transporter,0%
same,inhibition at 10 µM,GABA B1A,6%
same,inhibition at 10 µM,GABA B1B,8%
same,inhibition at 10 µM,Histamine H1,-2%
same,inhibition at 10 µM,Histamine H2,5%
same,inhibition at 10 µM,Muscarinic M1,7%
same,inhibition at 10 µM,Muscarinic M2,1%
same,inhibition at 10 µM,Muscarinic M3,12%
same,inhibition at 10 µM,[2],-1%
same,inhibition at 10 µM,"Opiate κ (OP2, KOP)",-1%
same,inhibition at 10 µM,"Opiate μ (OP3, MOP)",-1%
same,inhibition at 10 µM,Serotonin transporter,6%
same,inhibition at 10 µM,Vasopressin V1A,-11%
same,inhibition at 10 µM,[3],0%
same,inhibition at 10 µM,Cyclooxygenase (COX-1),-14%
same,inhibition at 10 µM,Cyclooxygenase (COX-2),4%
same,inhibition at 10 µM,MAO A,1%
same,inhibition at 10 µM,MAO B,0%
same,inhibition at 10 µM,[4],-4%
same,inhibition at 10 µM,Phosphodiesterase 5,-2%

# Source: article PMC7553946, “Soticlestat, a novel cholesterol 24-hydroxylase inhibitor shows a therapeutic potential for neural hyperexcitation in mice” (Scientific Reports, 2020)
